Each structure is given as a SMILES string. Where a name gives a salt, the structure may show the parent alone.

Assay [1] has as its system LPS-induced pulmonary neutrophilia in rats. In words: In Vivo Assay 1: LPS induced pulmonary neutrophilia in rats, intratracheal administration. Set-up: species or system rat. The note with it: rats; for mean inhibition of LPS-induced pulmonary neutrophilia: i.t. aqueous solution, about 2 hours prior to LPS; for estimated ED50 for inhibition of LPS-induced pulmonary neutrophilia: i.t., micronised, aqueous solution in 0.2% Tween 80 in PBS, about 2 hours prior to LPS challenge. The source says: This assay is an animal model of acute inflammation in the lung—specifically neutrophilia induced by lipopolysaccharide (LPS)—and allows the study of putative inhibition of such neutrophilia (anti-inflammatory effect) by an intratracheally (i.t.) administered PDE4 inhibitor (“drug”). The PDE4 inhibitors are suitably in dry powder, aqueous solution or aqueous suspension form. I.t. administration is one model of inhaled administration, allowing topical delivery to the lung.
Animals: Male CD (Sprague Dawley Derived) rats supplied by Charles River, United Kingdom are housed in groups of 5 rats per cage, acclimatised after delivery for at least 7 days with bedding/nesting material regularly changed, fed on SDS diet R1 pelleted food given ad lib, and supplied with daily-changed pasteurised animal grade drinking water.
Device for dry powder administration: For these studies, a Penn Century DP-4 dry powder intratracheal (i.t.) delivery device (insufflator) is used for administration of a dry powder blend of vehicle (inhalation grade lactose) and the PDE4 inhibitor compound or salt of the invention (“drug”). Each device is numbered and the sample loading chamber is unscrewed from the main device and weighed. The i.t. delivery needle is also weighed. The drug+lactose blend or inhalation grade lactose (vehicle control) is then added to the sample chamber and this is then re-weighed. The sample chamber is fitted back on to the main device to prevent any drug being lost. This procedure is repeated for all of the Penn century devices to be used in the study (one separate device for each animal). After dosing to the animals, the sample chambers and needles are re-weighed in order to determine the amount of sample that was expelled from the device.
Device for aqueous solution administration: A blunt dosing needle, whose forward end is slightly angled to the needle axis, is used, with a flexible plastic portex canula inserted into the needle. The portex cannula is inserted into the lumen of the blunt stainless steel dosing needle and this is carefully inserted into the back of the animal's throat and into the trachea via the larynx. A known volume (200 microlitres) of the vehicle (0.2% Tween 80™ in saline) or of the solution (or suspension) drug composition is administered into the trachea using a plastic syringe that is attached to the portex cannula and dosing needle. A new internal cannula is used for each different drug group. After dosing, the needle is removed from the trachea and the animals are removed from the table and continually observed until they recover from the effects of anaesthesia. The animals are then returned to the holding cages and given free access to food and water, and are observed and any unusual behavioural changes noted. (Aqueous suspensions can be handled generally similarly.)
Drugs and Materials: Lipopolysaccharide (LPS) (Serotype:0127:B8, e.g. from Sigma, UK; e.g. L3129 prepared by phenol extraction) is dissolved in phosphate-buffered saline (PBS).
For dry powder, aqueous solution or aqueous suspension administration, PDE4 inhibitors are preferably used in size-reduced (e.g. micronised) form, for example according to the Micronisation Example(s) disclosed herein.
For dry powder administration of the drug, the PDE4 inhibitor compound or salt of the invention (drug) is administered as a dry powder blended with inhalation-grade (respiratory-grade) lactose, i.e. as a dry powder composition. The target quantity of dry powder composition administered i.t. to each animal is 2 mg. This remains constant throughout the studies. To achieve different doses, blends of the drug dry powder and lactose, containing different concentrations of the PDE4 inhibitor compound or salt of the invention (drug), are prepared. […]

For assay [2], the target named is PDE5 (human recombinant) (Homo sapiens, UniProt O76074). As to the kind of experiment: Inhibition of PDE5 activity (FP or SPA assays). The assay is classed as biochemical. The conditions noted are these: selectivity PDE4B over PDE5. An excerpt: Human recombinant PDE5 is disclosed in K. Loughney et al., “Isolation and characterisation of cDNAs encoding PDE5A, a human cGMP-binding, cGMP-specific 3′,5′-cyclic nucleotide phosphodiesterase”, Gene, 1998, 216, 139-147.
The ability of compounds to inhibit catalytic activity at PDE4B or 4D (human recombinant), PDE3 (from bovine aorta), PDE5 (human recombinant) or PDE6 (from bovine retina) can optionally be determined by Scintillation Proximity Assay (SPA) in a 96-well format.
Test compounds (as a solution in DMSO, suitably about 2 microlitre (ul) volume of DMSO solution) are preincubated at ambient temperature (room temperature, e.g. 19-23° C.) in Wallac Isoplates (code 1450-514) with PDE enzyme in 50 mM Tris-HCl buffer pH 7.5, 8.3 mM MgCl2, 1.7 mM EGTA, 0.05% (w/v) bovine serum albumin for 10-30 minutes (usually 30 minutes). The enzyme concentration is adjusted so that no more than 20% hydrolysis of the substrate defined below occurs in control wells without compound, during the incubation. […] Bound radioactive product is measured using a WALLAC TRILUX 1450 Microbeta scintillation counter. […] Curves are analysed using ActivityBase and XLfit (ID Business Solutions Limited, 2 Ocean Court, Surrey Research Park, Guildford, Surrey GU2 7QB, United Kingdom) Results are expressed as pIC50 values. […]

Regarding `CCc1nc2c(cnn2CC)c(NC2CCOCC2)c1CNC(=O)c1ccc(NC(=O)CCCCCCCN(C)CCO)cc1` [Example 1A1, N-{[1,6-Diethyl-4-(tetrahydro-2H-pyran-4-ylamino)-1H-pyrazolo[3,4-b]pyridin-5-yl]methyl}-4-({8-[(2-hydroxyethyl)(methyl)amino]octanoyl}amino)benzamide dihydrochloride], the “mean inhibition of LPS-induced pulmonary neutrophilia” value in assay [1] (about 10 micrograms/kg, dihydrochloride) is given as “about 33%”; in assay [1] (about 30 micrograms/kg, dihydrochloride), “about 56%”; in assay [1] (about 100 micrograms/kg, dihydrochloride) it was “about 76%”; in assay [1] (about 300 micrograms/kg), “about 74%”. Further, in assay [1] (dihydrochloride), the “estimated ED50 for inhibition of LPS-induced pulmonary neutrophilia” value is listed as “approximately 12.3 micrograms/kg body weight”.
`CCc1nc2c(cnn2CC)c(NC2CCOCC2)c1CNC(=O)c1ccc(NC(=O)CCCCCCCN(C)CCO)cc1` [Example 1B, N-{[1,6-diethyl-4-(tetrahydro-2H-pyran-4-ylamino)-1H-pyrazolo[3,4-b]pyridin-5-yl]methyl}-4-({8-[(2-hydroxyethyl)(methyl)amino]octanoyl}amino)benzamide]: the “PDE4B inhibition compared with PDE5 inhibition (pIC50 values)” value in assay [2] is “inhibit PDE4B more strongly than they inhibit PDE3, PDE5 and PDE6”. Also, the “mean inhibition of LPS-induced pulmonary neutrophilia” value in assay [1] (about 10 micrograms/kg) is listed as “about 29%”; in assay [1] (about 30 micrograms/kg), “about 75%”; in assay [1] (about 100 micrograms/kg), “about 59%”. Further, in assay [1], the “estimated ED50 for inhibition of LPS-induced pulmonary neutrophilia” value is recorded as “approximately 10.1 micrograms/kg body weight”.

Source of the values: patent publication US20090325952A1, “PYRAZOLO[3,4-B]PYRIDINE COMPOUNDS, AND THEIR USE AS PDE4 INHIBITORS” (Glaxo Group Limited, priority 2006, published 2009).
